Laboratory results as given in patent publication US20150335016A1, “Herbicidal Composition Comprising a Cornexistin” (BASF SE, priority 2012, published 2015).

Experiments:
Experiment in all cases: Greenhouse post-emergence herbicidal test
Format in all cases: in vivo
[1] = test system: ERICA (Erigeron canadensis)
Procedure: (§1) The culture containers used were plastic pots containing loamy sand with approximately 2-3.0% of organic matter. The seeds of the test plants were sown separately for each species.
(§2) For the post-emergence treatment, the test plants were grown to a plant height of from 3 to 15 cm, depending on the plant habit, and only then treated with the active compounds which had been suspended or emulsified in water. To this end, the test plants were either sown directly, and grown in the same containers, or they were first grown separately as seedlings and transplanted into the test containers a few days prior to treatment.
(§3) Depending on the species, the plants were kept at 10-25° C. and 20-35° C., respectively.
(§4) The test period extended over 2 to 4 weeks. During this time, the plants were tended and their response to the individual treatments was evaluated.
(§5) Evaluation was carried out using a scale from 0 to 100. 100 means no emergence of the plants, or complete destruction of at least the above-ground parts, and 0 means no damage or normal course of growth. A good herbicidal activity is given at values of at least 70, and very good herbicidal activity is given at values of at least 85.
(§6) In the examples below, using the method of S. R. Colby (1967) “Calculating synergistic and antagonistic responses of herbicide combinations”, Weeds 15, p. 22ff., the value E, which is expected if the activity of the individual active compounds is only additive, was calculated.
(§7) where • X=percent activity using active compound A at an application rate a; • Y=percent activity using active compound B at an application rate b; • E=expected activity (in %) by A+B at application rates a+b.
(§8) If the value found experimentally is higher than the value E calculated according to Colby, a synergistic effect is present.
(§9) For preparation of the mixtures herbicides A were used in form of an aqueous solution comprising 22.5% by weight of the respective herbicide A. The herbicides B were used in form of the respective commercially available formulations as identified below. If appropriate, the adjuvant DASH® HC was added to the mixtures.
(§10) The respective mixtures of active ingredients were introduced into the spray liquor used for applying the active compound. In the examples, the solvent used was water.

[2] = test system: AMBEL (Ambrosia artemisiifolia)
Procedure: as §1, §2, §3, §4, §5, §6, §7, §8, §9, §10

[3] = test system: ABUTH (Abutilon theophrasti)
Procedure: as §1, §2, §3, §4, §5, §6, §7, §8, §9, §10

[4] = test system: POLPE (Polygonum persicaria)
Procedure: as §1, §2, §3, §4, §5, §6, §7, §8, §9, §10

[5] = test system: SETFA (Setaria faberi)
Procedure: as §1, §2, §3, §4, §5, §6, §7, §8, §9, §10

[6] = test system: COMBE (Commelina benghalensis)
Procedure: as §1, §2, §3, §4, §5, §6, §7, §8, §9, §10

[7] = test system: BRAPP (Urochloa platyphylla)
Procedure: as §1, §2, §3, §4, §5, §6, §7, §8, §9, §10

[8] = test system: PANMI (Panicum miliaceum L.)
Procedure: as §1, §2, §3, §4, §5, §6, §7, §8, §9, §10

[9] = test system: CHEAL (Chenopodium album)
Procedure: as §1, §2, §3, §4, §5, §6, §7, §8, §9, §10

[10] = test system: AMARE (Amaranthus retroflexus)
Procedure: as §1, §2, §3, §4, §5, §6, §7, §8, §9, §10

[11] = test system: DIGSA (Digitaria sanguinales)
Procedure: as §1, §2, §3, §4, §5, §6, §7, §8, §9, §10

[12] = Example 1, post-emergence, B.17 62.5 g/ha a.i.
[13] = Example 4, post-emergence, B.30 12.5 g/ha a.i.
[14] = Example 2, post-emergence, B.49 75 g/ha a.i.
[15] = Example 5, post-emergence, B.55 2.5 g/ha a.i.
[16] = Example 2, post-emergence; a1) 62.5 g/ha a.i.
[17] = Example 1, post-emergence; a1) 125 g/ha a.i.
[18] = Example 5, post-emergence; a1) 31.25 g/ha a.i.
[19] = Example 4, post-emergence; a1) 125 g/ha a.i.

## COCc1cnc(C2=NC(C)(C(C)C)C(=O)N2)c(C(=O)O)c1 (stereo not shown) [B.3, imazamox]
[1]; Example 3, post-emergence, heading: +1% by weight DASH HC, B.3 9 g/ha a.i.
  herbicidal activity against ERICA found: 90%

## CC(C)N1C(=O)c2ccccc2NS1(=O)=O [B.17, bentazone]
[1]; [12]
  herbicidal activity against ERICA found: 70%
[2]; [12]
  herbicidal activity against AMBEL found: 30%
[3]; [12]
  herbicidal activity against ABUTH found: 40%
[4]; [12]
  herbicidal activity against POLPE found: 55%

## Cn1nc(C(F)(F)F)c(CS(=O)(=O)C2=NOC(C)(C)C2)c1OC(F)F [B.30, pyroxasulfone]
[5]; [13]
  herbicidal activity against SETFA found: 40%
[6]; [13]
  herbicidal activity against COMBE found: 45%
[7]; [13]
  herbicidal activity against BRAPP found: 50%

## CCc1cccc(CC)c1N(COC)C(=O)CCl [B.49, alachlor]
[8]; [14]
  herbicidal activity against PANMI found: 45%
[9]; [14]
  herbicidal activity against CHEAL found: 0%
[10]; [14]
  herbicidal activity against AMARE found: 30%
[11]; [14]
  herbicidal activity against DIGSA found: 40%

## COC(=O)c1ccccc1S(=O)(=O)NC(=O)Nc1nc(C)nc(OC)n1 [B.55, metsulfuron-methyl]
[9]; [15]
  herbicidal activity against CHEAL found: 40%
[2]; [15]
  herbicidal activity against AMBEL found: 75%

## C/C=C1/CC2=C(C(=O)OC2=O)[C@H](CCC)[C@H](O)C(=O)C[C@@H]1O [a1), cornexistin]
[8]; [16]
  herbicidal activity against PANMI found: 80%
[1]; [17]
  herbicidal activity against ERICA found: 40%
[1]; Example 3, post-emergence, heading: +1% by weight DASH HC; a1) 62.5 g/ha a.i.
  herbicidal activity against ERICA found: 60%
[9]; [16]
  herbicidal activity against CHEAL found: 90%
[9]; [18]
  herbicidal activity against CHEAL found: 70%
[2]; [17]
  herbicidal activity against AMBEL found: 65%
[2]; [18]
  herbicidal activity against AMBEL found: 80%
[3]; [17]
  herbicidal activity against ABUTH found: 50%
[10]; [16]
  herbicidal activity against AMARE found: 50%
[5]; [19]
  herbicidal activity against SETFA found: 80%
[6]; [19]
  herbicidal activity against COMBE found: 55%
[4]; [17]
  herbicidal activity against POLPE found: 60%
[11]; [16]
  herbicidal activity against DIGSA found: 55%
[7]; [19]
  herbicidal activity against BRAPP found: 50%
